Patent US20120202794A1 (priority 2011, published 2012)

What was measured:
[1] = test system: HCV Replicon 1b; experiment: HCV inhibition assay, HCV replicon 1b (Clone A or ET-lunet cells; RT-PCR or luciferase reporter); format: cell-based; settings: Hepatitis C virus, 96 h, HCV replicon 1b; 4 days incubation; read-out: Replicon 1b potency EC90
Method in brief: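 Clone A (1500/well) or ET-lunet (3000/well) replicon cells treated with serially diluted compounds (0.5% DMSO, no G418) for 4 days at 37 °C. HCV RNA measured by one-step RT-PCR normalized to rRNA (ΔΔCt) or by luciferase luminescence versus DMSO controls; EC50/EC90 by curve fitting.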

[2] = Cell cytotoxicity assay (MTS), CC90 as reported in Table 1, cell line not stated; format: cell-based; settings: human; cell line not given
Method in brief: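 Compounds, serially diluted from 100 μM, were incubated 8 days at 37° C with Huh7, HepG2 or BxPC3 (2×10^3 cells/well) or CEM (5×10^3 cells/well). Viability was read by MTS, 2 h, absorbance 490 nm. CC90 (90% inhibition) was taken against untreated cells.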

SMILES	EC90 [1] [nM]	CC90 at 8 days [2] [µM]
CC(C)C[C@H]1CN(Cc2ccc(F)c(Cl)c2)[C@@H](CC(C)C)C(=O)N1 [Compound 227, (3S,6S)-4-(3-Chloro-4-fluoro-benzyl)-3,6-diisobutyl-piperazin-2-one]	> 10000	> 10
CC(C)C[C@H]1CN(Cc2ccc(OC(F)(F)F)cc2)[C@@H](CC(C)C)C(=O)N1 [Compound 228, (3S,6S)-3,6-Diisobutyl-4-(4-trifluoromethoxy-benzyl)-piperazin-2-one]	3260	> 10
CC(C)C[C@H]1CN(Cc2cc(C(F)(F)F)ccc2Cl)[C@@H](CC(C)C)C(=O)N1 [Compound 229, (3S,6S)-4-(2-Chloro-5-trifluoromethyl-benzyl)-3,6-diisobutyl-piperazin-2-one]	5120	> 10
CCC[C@H]1CN(C(=O)[C@@H]2C[C@H]2c2ccccc2)[C@@H](CC(C)C)C(=O)N1 [Compound 230, (3S,6S)-3-isobutyl-4-((1R,2R)-2-phenylcyclopropanecarbonyl)-6-propylpiperazin-2-one]	570	> 10
CC(C)C[C@H]1C(=O)N[C@@H](C2CCCCC2)CN1C(=O)[C@@H]1C[C@H]1c1ccccc1 [Compound 231, (3S,6S)-6-cyclohexyl-3-isobutyl-4-((1R,2R)-2-phenylcyclopropanecarbonyl)-piperazin-2-one]	930	> 10
CC(C)C[C@H]1C(=O)N[C@@H](C2CCCC2)CN1C(=O)[C@@H]1C[C@H]1c1ccccc1 [Compound 232, (3S,6S)-6-cyclopentyl-3-isobutyl-4-((1R,2R)-2-phenylcyclopropanecarbonyl)-piperazin-2-one]	690	> 10
CC(C)C[C@H]1C(=O)N[C@@H](C(C)C)CN1C(=O)[C@@H]1C[C@H]1c1ccccc1 [Compound 233, (3S,6S)-3-isobutyl-6-isopropyl-4-((1R,2R)-2-phenylcyclopropanecarbonyl)piperazin-2-one]	930	> 10
CC(C)C[C@H]1C(=O)N[C@@H](c2ccccc2)CN1C(=O)[C@@H]1C[C@H]1c1ccccc1 [Compound 234, (3S,6S)-3-isobutyl-6-phenyl-4-((1R,2R)-2-phenylcyclopropanecarbonyl)piperazin-2-one]	300	> 10
CC(C)C[C@H]1C(=O)N[C@@H](C2CC2)CN1C(=O)[C@@H]1C[C@H]1c1ccccc1 [Compound 235, (3S,6S)-6-cyclopropyl-3-isobutyl-4-((1R,2R)-2-phenylcyclopropanecarbonyl)-piperazin-2-one]	4200	> 10
CC(C)C[C@H]1CN(C(=O)[C@@H]2C[C@H]2c2ccc(F)cc2)[C@@H](CC(C)C)C(=O)N1 [Compound 236, (3S,6S)-4-[(1R,2R)-2-(4-Fluoro-phenyl)-cyclopropanecarbonyl]-3,6-diisobutyl-piperazin-2-one]	80	> 10
CC(C)C[C@H]1CN(C(=O)[C@@H]2C[C@H]2c2ccc(Cl)cc2)[C@@H](CC(C)C)C(=O)N1 [Compound 237, (3S,6S)-4-[(1R,2R)-2-(4-Chloro-phenyl)-cyclopropanecarbonyl]-3,6-diisobutyl-piperazin-2-one]	270	> 10
CC(C)C[C@H]1CN(C(=O)[C@@H]2C[C@H]2c2ccc(F)c(F)c2)[C@@H](CC(C)C)C(=O)N1 [Compound 238, (3S,6S)-4-[(1R,2R)-2-(3,4-Difluoro-phenyl)-cyclopropanecarbonyl]-3,6-diisobutyl-piperazin-2-one]	590	> 10
COc1ccc([C@@H]2C[C@H]2C(=O)N2C[C@H](CC(C)C)NC(=O)[C@@H]2CC(C)C)cc1 [Compound 239, (3S,6S)-3,6-Diisobutyl-4-[(1R,2R)-2-(4-methoxy-phenyl)-cyclopropanecarbonyl]-piperazin-2-one]	960	> 10
CCC[C@H]1CN(C(=O)[C@@H]2C[C@H]2c2ccc(F)cc2)[C@@H](CC(C)C)C(=O)N1 [Compound 240, (3S,6S)-4-[(1R,2R)-2-(4-Fluoro-phenyl)-cyclopropanecarbonyl]-3-isobutyl-6-propyl-piperazin-2-one]	100	> 10
CC(C)C[C@H]1C(=O)N[C@@H](C2CCCCC2)CN1C(=O)[C@@H]1C[C@H]1c1ccc(F)cc1 [Compound 241, (3S,6S)-6-Cyclohexyl-4-[(1R,2R)-2-(4-fluoro-phenyl)-cyclopropanecarbonyl]-3-isobutyl-piperazin-2-one]	150	> 10
CC(C)C[C@H]1C(=O)N[C@@H](C2CCCC2)CN1C(=O)[C@@H]1C[C@H]1c1ccc(F)cc1 [Compound 242, (3S,6S)-6-Cyclopentyl-4-[(1R,2R)-2-(4-fluoro-phenyl)-cyclopropanecarbonyl]-3-isobutyl-piperazin-2-one]	60	> 10

SMILES	EC90 [1] [nM]	CC90 at 8 days [2] [µM]
CC(C)C[C@H]1C(=O)N[C@@H](CC2CC2)CN1C(=O)[C@@H]1C[C@H]1c1ccc(Cl)cc1 [Compound 243, (3S,6S)-4-[(1R,2R)-2-(4-Chloro-phenyl)-cyclopropanecarbonyl]-6-cyclopropylmethyl-3-isobutyl-piperazin-2-one]	430	> 10
CCC[C@H]1CN(C(=O)[C@@H]2C[C@H]2c2ccc(Cl)cc2)[C@@H](CC(C)C)C(=O)N1 [Compound 244, (3S,6S)-4-[(1R,2R)-2-(4-Chloro-phenyl)-cyclopropanecarbonyl]-3-isobutyl-6-propyl-piperazin-2-one]	70	> 10
CC(C)C[C@H]1C(=O)N[C@@H](C2CCCCC2)CN1C(=O)[C@@H]1C[C@H]1c1ccc(Cl)cc1 [Compound 245, (3S,6S)-4-[(1R,2R)-2-(4-Chloro-phenyl)-cyclopropanecarbonyl]-6-cyclohexyl-3-isobutyl-piperazin-2-one]	620	> 10
CC(C)C[C@H]1C(=O)N[C@@H](C2CCCC2)CN1C(=O)[C@@H]1C[C@H]1c1ccc(Cl)cc1 [Compound 246, (3S,6S)-4-[(1R,2R)-2-(4-Chloro-phenyl)-cyclopropanecarbonyl]-6-cyclopentyl-3-isobutyl-piperazin-2-one]	200	> 10
CC(C)C[C@H]1C(=O)N[C@@H](c2ccccc2)CN1C(=O)[C@@H]1C[C@H]1c1ccc(F)cc1 [Compound 247, (3S,6S)-4-[(1R,2R)-2-(4-Fluoro-phenyl)-cyclopropanecarbonyl]-3-isobutyl-6-phenyl-piperazin-2-one]	50	> 10
CC(C)C[C@H]1C(=O)N[C@@H](c2ccccc2)CN1C(=O)[C@@H]1C[C@H]1c1ccc(Cl)cc1 [Compound 248, (3S,6S)-4-[(1R,2R)-2-(4-Chloro-phenyl)-cyclopropanecarbonyl]-3-isobutyl-6-phenyl-piperazin-2-one]	160	> 10
CC(C)C[C@H]1CN(C(=O)[C@@H]2C[C@H]2c2ccc(C(C)(C)C)cc2)[C@@H](CC(C)C)C(=O)N1 [Compound 249, (3S,6S)-4-[(1R,2R)-2-(4-tert-Butyl-phenyl)-cyclopropanecarbonyl]-3,6-diisobutyl-piperazin-2-one]	750	> 10
CC(C)C[C@H]1CN(C(=O)[C@@H]2C[C@H]2c2ccc(Cl)cc2F)[C@@H](CC(C)C)C(=O)N1 [Compound 250, (3S,6S)-4-[(1R,2R)-2-(4-Chloro-2-fluoro-phenyl)-cyclopropanecarbonyl]-3,6-diisobutyl-piperazin-2-one]	360	> 10
CCC[C@H]1CN(C(=O)[C@@H]2C[C@H]2c2ccc(Cl)cc2F)[C@@H](CC(C)C)C(=O)N1 [Compound 251]	200	> 10
CC(C)C[C@H]1C(=O)N[C@@H](C2CCCCC2)CN1C(=O)[C@@H]1C[C@H]1c1ccc(Cl)cc1F [Compound 252]	670	> 10
CC(C)C[C@H]1C(=O)N[C@@H](C2CCCC2)CN1C(=O)[C@@H]1C[C@H]1c1ccc(Cl)cc1F [Compound 253, (3S,6S)-4-[(1R,2R)-2-(4-Chloro-2-fluoro-phenyl)-cyclopropanecarbonyl]-6-cyclopentyl-3-isobutyl-piperazin-2-one]	500	> 10
CC(C)C[C@H]1C(=O)N[C@@H](C(C)C)CN1C(=O)[C@@H]1C[C@H]1c1ccc(Cl)cc1F [Compound 254, (3S,6S)-4-[(1R,2R)-2-(4-Chloro-2-fluoro-phenyl)-cyclopropanecarbonyl]-3-isobutyl-6-isopropyl-piperazin-2-one]	660	> 10
CC(C)C[C@H]1C(=O)N[C@@H](c2ccccc2)CN1C(=O)[C@@H]1C[C@H]1c1ccc(Cl)cc1F [Compound 255, (3S,6S)-4-[(1R,2R)-2-(4-Chloro-2-fluoro-phenyl)-cyclopropanecarbonyl]-3-isobutyl-6-phenyl-piperazin-2-one]	360	> 10
CC(C)C[C@H]1CN(C(=O)[C@@H]2C[C@H]2c2ccc(F)cc2F)[C@@H](CC(C)C)C(=O)N1 [Compound 256, (3S,6S)-4-[(1R,2R)-2-(2,4-Difluoro-phenyl)-cyclopropanecarbonyl]-3,6-diisobutyl-piperazin-2-one]	220	> 10
CCC[C@H]1CN(C(=O)[C@@H]2C[C@H]2c2ccc(F)c(F)c2)[C@@H](CC(C)C)C(=O)N1 [Compound 257, (3S,6S)-4-[(1R,2R)-2-(3,4-Difluoro-phenyl)-cyclopropanecarbonyl]-3-isobutyl-6-propyl-piperazin-2-one]	590	> 10
